Results as given in PubChem BioAssay AID624167 (Sanford-Burnham Center for Chemical Genomics, 2012).
pIC50: −log10 of the molar value. Active and inactive are the calls of the source.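 The calls were made as follows: active = mean IC50 for reducing PEG3 promoter reporter signal at or below a set limit, with IC50 above the limit in both counter screens; inactive = the rest, including counter screen hits.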

Experiments:
Assay in all cases: inhibition of PEG-3 promoter-driven reporter – cell-based, HeLa, luciferase, CREF/GAPDH counter-screen panel, dose response (AID 624167)
[1] = tested on: PEG-3; conditions: HeLa PEG-Prom luciferase reporter, overnight, CREF/GAPDH counter-screens
[2] = biological target: PEG-3 (UniProt Q6IN02); conditions: HeLa PEG-Prom luciferase reporter, overnight, CREF/GAPDH counter-screens, mean of runs
Sequence of PEG-3 (UniProt Q6IN02) (Q6IN02 whole entry, looked up): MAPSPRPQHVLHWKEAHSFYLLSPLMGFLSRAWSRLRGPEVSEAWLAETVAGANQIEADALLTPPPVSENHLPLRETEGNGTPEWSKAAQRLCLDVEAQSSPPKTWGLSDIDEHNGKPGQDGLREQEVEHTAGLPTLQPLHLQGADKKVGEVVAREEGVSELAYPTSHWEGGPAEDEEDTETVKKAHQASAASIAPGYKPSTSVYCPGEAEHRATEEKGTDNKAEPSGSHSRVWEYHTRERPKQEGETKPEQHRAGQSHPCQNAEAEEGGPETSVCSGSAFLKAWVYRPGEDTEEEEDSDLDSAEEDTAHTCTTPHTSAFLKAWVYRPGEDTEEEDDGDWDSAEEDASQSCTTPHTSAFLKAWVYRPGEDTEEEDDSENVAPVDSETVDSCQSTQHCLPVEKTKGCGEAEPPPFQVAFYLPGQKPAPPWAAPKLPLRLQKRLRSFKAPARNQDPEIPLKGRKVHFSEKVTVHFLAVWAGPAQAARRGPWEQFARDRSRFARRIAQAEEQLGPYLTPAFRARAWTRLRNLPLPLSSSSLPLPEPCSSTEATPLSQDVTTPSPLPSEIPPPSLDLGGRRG

[3] = tested on: Rat fibroblasts (CREF); conditions: CREF/GAPDH counter-screens
[4] = run 1, dose range 1, individual replicate IC50 per panel
[5] = run 2, dose range 1, individual replicate IC50 per panel

| SMILES | pIC50 [2] | IC50 [2] | pIC50 [1, 4] | pIC50 [1, 5] | pIC50 ([3]; mean of runs) | pIC50 [3, 4] | pIC50 [3, 5] |
| --- | --- | --- | --- | --- | --- | --- | --- |
| N=c1n(CCN2CCCCC2)c2ccccc2n1CC(O)c1ccc(Cl)c(Cl)c1 (centres undefined) | 5.02 |  | 5.00 | 5.06 | 4.85 | 4.87 | 4.83 |
| O=C(Nc1nc2cc3c(cc2s1)OCCO3)C1=COCCO1 | 6.28 |  | 6.37 | 6.21 | 6.03 | 6.24 | 5.90 |
| O=C(Nc1ccc(N2CCOCC2)cc1)c1cnsn1 | 5.67 |  | 5.55 | 5.83 | 5.59 | 5.60 | 5.57 |
| C/C(=N\NC(=O)c1n[nH]c2c1CCC2)c1cccs1 | 5.76 |  | 5.93 | 5.63 | 5.60 | 5.60 | 5.60 |
| O=c1c(Cl)c(N2CCCCC2)cnn1-c1nc2ccccc2[nH]1 | 5.49 |  | 5.52 | 5.46 | 6.15 | 6.09 | 6.21 |
| Cc1ccc(-c2cn3cc(C)ccc3n2)cc1 | 6.14 |  | 6.14 | 6.15 | 5.89 | 5.99 | 5.81 |
| O=C(NC1=NCCS1)C1COc2ccccc2O1 (centres undefined) | 5.73 |  | 5.87 | 5.62 | 4.82 | 4.84 | 4.80 |
| CN1CCN(c2ccc(-c3ccc4ccccc4n3)cc2)CC1 |  | inactive | 5.11 | < 4.00 | 5.63 | 5.53 | 5.75 |
| Cc1cc(C)c2nc(NNC(=O)c3ccc(S(=O)(=O)N4CC(C)CC(C)C4)cc3)sc2c1 (centres undefined) | 5.29 |  | 5.13 | 5.52 | 5.06 | 4.86 | 5.47 |
| O=C1CCCCC1Sc1nnc(-c2ccc3c(c2)OCO3)o1 (centres undefined) | 5.77 |  | 5.77 | 5.77 | 5.11 | 5.09 | 5.13 |
| Cc1cc(C)c2c(N)c(C(=O)Nc3ncc(C)s3)sc2n1 | 5.78 |  | 5.96 | 5.65 | 5.48 | 5.54 | 5.42 |
| Cc1ccc(-c2cc3c(N=O)c4ccccc4c-3n[nH]2)cc1 | 5.99 |  | 5.92 | 6.07 | 4.73 | 5.56 | 4.46 |
| COCCn1c(C)cc(C(=O)CSc2nnc(C)s2)c1C | 5.03 |  | 5.26 | 4.87 | 5.06 | 5.17 | 4.97 |
| CCCS(=O)(=O)c1cnc(C2COc3ccccc3O2)nc1N (centres undefined) | 5.42 |  | 5.60 | 5.30 | 4.97 | 5.04 | 4.90 |
| CC1CCN(c2ccc(-c3cccs3)nn2)CC1 | 5.74 |  | 5.67 | 5.83 | 6.47 | 6.50 | 6.44 |
| CC1CCCN(c2ncnc3c2cnn3-c2ccc(Cl)cc2)C1 (centres undefined) | 5.14 |  | 5.22 | 5.08 | 5.70 | 5.75 | 5.66 |

Continued, in another order:

| pIC50 [2] | IC50 [2] | SMILES | pIC50 [1, 4] | pIC50 [1, 5] | pIC50 ([3]; mean of runs) | pIC50 [3, 4] | pIC50 [3, 5] |
| --- | --- | --- | --- | --- | --- | --- | --- |
| 5.47 |  | Cc1ccc(C(=O)Nc2nc3ccccc3[nH]2)cc1 | 5.69 | 5.33 | 6.28 | 6.28 | 6.28 |
| 5.87 |  | O=C(O)c1cccc(COc2ccc3c(c2)CCC3)c1 | 6.08 | 5.72 | 4.99 | 4.97 | 5.00 |
| 6.44 |  | Nc1ccc(-c2nc3ccc(C(=O)O)cc3s2)cc1 | 6.36 | 6.54 | 5.22 | 5.20 | 5.24 |
| 5.49 |  | CCOc1ccc(NC(=O)Nc2cccc(C(=O)O)c2)cc1 | 5.54 | 5.45 | 5.39 | 5.51 | 5.29 |
| 5.19 |  | COc1ccc(/C=N/Nc2nncc3ccccc23)cc1 | 5.34 | 5.07 | 6.08 | 6.02 | 6.15 |
| 5.73 |  | Cc1ccccc1OCC(=O)Nc1cccc(C(=O)O)c1 | 5.80 | 5.68 | 4.74 | 4.45 | 5.95 |
| 5.59 |  | CN(C)c1ccc(NC(=S)c2ccccn2)cc1 | 5.66 | 5.53 | 5.92 | 5.90 | 5.94 |
| 5.44 |  | CN(C)c1ccc(Nc2nc(N)c3ccccc3n2)cc1 | 5.60 | 5.32 | 6.00 | 6.06 | 5.95 |
